Experimental data from PubChem BioAssay (NCI).
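1) Cells in 96-well plates. 2) Compound, 48 h, 5 concentrations. 3) Linear interpolation between surrounding doses. 4) Unreached endpoint = highest concentration. Abbreviation: GI50, concentration required for 50% inhibition of growth. TGI marks complete inhibition of growth.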

Tests used:
Test in all cases: inhibition of tumour cell growth, NCI panel, 48 h
[1] = tested on: 786-0 renal
[2] = tested on: A498 renal
[3] = tested on: A549 NSCLC
[4] = tested on: ACHN renal
[5] = tested on: BT-549 breast
[6] = tested on: CAKI-1 renal
[7] = tested on: CCRF-CEM leukemia
[8] = tested on: COLO 205 colon
[9] = tested on: DU-145 prostate
[10] = tested on: EKVX NSCLC
[11] = tested on: HCC-2998 colon
[12] = tested on: HCT-116 colon
[13] = tested on: HCT-15 colon
[14] = tested on: HL-60(TB) leukemia
[15] = tested on: HOP-62 NSCLC
[16] = tested on: HOP-92 NSCLC
[17] = tested on: HS 578T breast
[18] = tested on: HT29 colon
[19] = tested on: IGROV1 ovarian
[20] = tested on: K-562 leukemia
[21] = tested on: KM12 colon
[22] = tested on: LOX IMVI melanoma
[23] = tested on: M14 melanoma
[24] = tested on: MALME-3M melanoma
[25] = tested on: MCF7 breast
[26] = tested on: MDA-MB-231 breast
[27] = tested on: MDA-MB-435
[28] = tested on: MOLT-4 leukemia
[29] = tested on: NCI-H226 lung
[30] = tested on: NCI-H23 lung
[31] = tested on: NCI-H460 lung
[32] = tested on: NCI-H522 lung
[33] = tested on: NCI/ADR-RES ovarian
[34] = tested on: OVCAR-3 ovarian
[35] = tested on: OVCAR-4 ovarian
[36] = tested on: OVCAR-5 ovarian
[37] = tested on: OVCAR-8 ovarian
[38] = tested on: PC-3 prostate
[39] = tested on: RPMI-8226 leukemia
[40] = tested on: RXF 393 renal
[41] = tested on: SF-268 CNS
[42] = tested on: SF-295 CNS
[43] = tested on: SF-539 CNS
[44] = tested on: SK-MEL-2 melanoma
[45] = tested on: SK-MEL-28 melanoma
[46] = tested on: SK-MEL-5 melanoma
[47] = tested on: SK-OV-3 ovarian
[48] = tested on: SN12C renal
[49] = tested on: SNB-19 CNS
[50] = tested on: SNB-75 CNS
[51] = tested on: SR leukemia
[52] = tested on: SW-620 colon
[53] = tested on: T-47D breast
[54] = tested on: TK-10 renal
[55] = tested on: U251 CNS
[56] = tested on: UACC-257 melanoma
[57] = tested on: UACC-62 melanoma
[58] = tested on: UO-31 renal

Work on `Brc1ccc2[nH]cc(-c3nn4cc(-c5nccs5)nc4s3)c2c1` yielded a GI50 [1] of 2 µM, a TGI [1] of 4.11 µM and a GI50 [2] of 16 µM. It also gave a TGI [2] of 32 µM, a GI50 [3] of 2.6 µM and a TGI [3] of 7.52 µM. The GI50 [4] was 2.39 µM, the TGI [4] was 7.4 µM and the GI50 [5] was 3.22 µM. It also gave a TGI [5] of 11.8 µM, a GI50 [6] of 2.46 µM and a TGI [6] of 7.73 µM. The GI50 [7] was 3.06 µM, the TGI [7] was over 40 µM and the GI50 [8] was 5.31 µM. It also gave a TGI [8] of 21.9 µM, a GI50 [9] of 5.39 µM and a TGI [9] of 17.7 µM. The GI50 [10] was 4.45 µM, the TGI [10] was over 56.7 µM and the GI50 [11] was 2.65 µM. For the same compound, the TGI [11] was over 22.3 µM, the GI50 [12] was 1.82 µM and the TGI [12] was 3.44 µM. The GI50 [13] was 3.25 µM, the TGI [13] was over 34.7 µM and the GI50 [14] was 22.8 µM. The TGI [14] was over 100 µM, the GI50 [15] was 2.46 µM and the TGI [15] was 11.2 µM. For the same compound, the GI50 [16] was 1.77 µM, the TGI [16] was 4.56 µM and the GI50 [17] was 4.88 µM. The TGI [17] was over 64 µM, the GI50 [18] was 7.9 µM and the TGI [18] was over 69.1 µM. It also gave a GI50 [19] of 2.58 µM, a TGI [19] of 14.6 µM and a GI50 [20] of 2.84 µM. For the same compound, the TGI [20] was 11.9 µM, the GI50 [21] was 7.16 µM and the TGI [21] was over 100 µM. The GI50 [22] was 2.41 µM, the TGI [22] was 10.3 µM and the GI50 [23] was 3.58 µM. It also gave a TGI [23] of 16.1 µM, a GI50 [24] of 3.71 µM and a TGI [24] of 12.1 µM. It also gave a GI50 [25] of 3.23 µM, a TGI [25] of over 35.5 µM and a GI50 [26] of 1.82 µM. The TGI [26] was 5.04 µM, the GI50 [27] was 4.4 µM and the TGI [27] was 20.1 µM. For the same compound, the GI50 [28] was 2.58 µM, the TGI [28] was over 100 µM and the GI50 [29] was 2.28 µM. It also gave a TGI [29] of 8.95 µM, a GI50 [30] of 2.49 µM and a TGI [30] of 10.2 µM. It also gave a GI50 [31] of 2.51 µM, a TGI [31] of 7.36 µM and a GI50 [32] of 9.76 µM. It also gave a TGI [32] of 36.9 µM, a GI50 [33] of 2.28 µM and a TGI [33] of 7.1 µM. It also gave a GI50 [34] of 2.58 µM, a TGI [34] of 7.62 µM and a GI50 [35] of 5.04 µM. For the same compound, the TGI [35] was 14.9 µM, the GI50 [36] was 5.88 µM and the TGI [36] was 22.1 µM. For the same compound, the GI50 [37] was 2.53 µM, the TGI [37] was 6.77 µM and the GI50 [38] was 2.36 µM. For the same compound, the TGI [38] was 10.8 µM, the GI50 [39] was 2.25 µM and the TGI [39] was 9.84 µM. The GI50 [40] was 2.32 µM, the TGI [40] was 5.01 µM and the GI50 [41] was 7.98 µM. For the same compound, the TGI [41] was 68.9 µM, the GI50 [42] was 3 µM and the TGI [42] was 9.89 µM. The GI50 [43] was 3.14 µM, the TGI [43] was 12.2 µM and the GI50 [44] was 28.6 µM. The TGI [44] was over 100 µM, the GI50 [45] was 9.15 µM and the TGI [45] was over 59.3 µM. For the same compound, the GI50 [46] was 3.86 µM, the TGI [46] was 18 µM and the GI50 [47] was 10.3 µM. The TGI [47] was 26.3 µM, the GI50 [48] was 8.1 µM and the TGI [48] was over 50.9 µM. For the same compound, the GI50 [49] was 6.62 µM, the TGI [49] was 22.6 µM and the GI50 [50] was 1.79 µM. The TGI [50] was 7.94 µM, the GI50 [51] was 5.21 µM and the TGI [51] was over 50.7 µM. It also gave a GI50 [52] of 6.68 µM, a TGI [52] of over 58.1 µM and a GI50 [53] of 3.19 µM. For the same compound, the TGI [53] was over 75.7 µM, the GI50 [54] was 9.55 µM and the TGI [54] was 24.2 µM. For the same compound, the GI50 [55] was 8.49 µM, the TGI [55] was 21.3 µM and the GI50 [56] was 10.5 µM. It also gave a TGI [56] of over 62.5 µM, a GI50 [57] of over 57.7 µM and a TGI [57] of over 100 µM. For the same compound, the GI50 [58] was 1.73 µM and the TGI [58] was 6.57 µM.
